Measured values reported in patent US6482856B1, “Method and composition for treating mammalian disease caused by inflammatory response” (Cellular Sciences, Inc., priority 1995, dated 2002).
Like-named read-outs stand apart in the source and are kept apart here.

Columns and labels:
[1] = test system: emphysema and restrictive airway disease; assay: Inhalation of nebulized sodium pyruvate solution by a patient; lung capacity and lung function tests; assay type: in vivo, human
Procedure: Subject: A person suffering from emphysema and restrictive airway disease was treated as described below for three (3) months.
Treatment: The treatment was conducted as follows: Five (5) milliliters of five (5) millimolar sodium pyruvate solution is filter sterilized through a 0.2 micron filter. The sterile pyruvate solution is placed into a “Pulmo Aid” nebulizer manufactured by DeVilbiss Co., Somerset, Pa. 15501-0635. The sterile pyruvate solution is nebulized by the Pulmo Aid device fitted with a disposable nebulizer and inhaled by the patient. The patient inhales normally from the Pulmo Aid nebulizer until all of the solution has been nebulized and inhaled. This inhalation step typically takes about ten (10) to twenty (20) minutes.
The patient is treated with this inhalation therapy periodically. Initially, treatments are about four (4) times a day at about six (6) hour intervals. Treatments were reduced to three (3) times a day at about eight (8) hour intervals after 30 days of therapy. Treatments were further reduced to once a day 60 DAYS AFTER ONSET OF TREATMENT. After ninety (90) days treatments are three to five times a week.

[2] = test system: bacterial and yeast systems; settings: cited from earlier work
sodium sulfide = settings: in vivo; cited from earlier work
gastric mucosa [3] = settings: guinea pigs; caused by acetylsalicylic acid; cited from earlier work
[4] = test system: acrylamide neuropathy of axons; settings: in vivo; cited from earlier work
cyanide intoxication = settings: in vivo; cited from earlier work
gastric mucosa [5] = settings: rats; caused by acetylsalicylic acid; cited from earlier work
L1210 leukemia = settings: advanced L1210 leukemia; cited from earlier work
urinary calculi (stones) = settings: rats fed calcium-oxalate lithogenic diet, versus control rats; cited from earlier work
[6] = twenty to thirty minutes after initial treatment

CC(=O)C(=O)[O-].[Na+] [sodium pyruvate]
MVV (maximum ventilatory volume) ([1]; After Two Months Treatment, Before: 19): 25
DCO (diffusion of carbon monoxide) ([1]; After Two Months Treatment, Before: 27): 39 MI/min/mm Hg
DSB (diffusion single breath) ([1]; After Two Months Treatment, Before: 42): 52
ERV (expiratory reserve volume) ([1]; After Two Months Treatment, Before: 62): 110
IC (inspiratory capacity) ([1]; After Two Months Treatment, Before: 64): 69
O SAT (oxygen saturation) ([1]; After Two Months Treatment, Before: 91): 95
SVC (slow vital capacity) ([1]; After Two Months Treatment, inhaled 5 ml of 5 millimolar solution, Before: 63): 83
overall condition of the subject ([1]; after three (3) months treatment): marked improvement
Improved lung function ([1]; conclusion of the treatment): 20%
Increased exercise tolerance, tested and certified ([1]; conclusion of the treatment): close to that of a person without emphysema and restrictive airway disease
Mental attitude ([1]; conclusion of the treatment): greatly improved
Reactive airway disease ([1]; conclusion of the treatment): reduced to the point that routine use of inhalers is not needed
recurrence of decreased pulmonary functions ([1]; conclusion of the treatment): No recurrence
exercise tolerance [1, 6]: increase
tidal volume [1, 6]: increases
wheezing [1, 6]: stops
Use of oxygen ([1]; when treatment started): eliminated immediately
overall results ([1]; within two (2) weeks): dramatic results
growth [2]: enhance
hydrogen peroxide production [2]: inhibit
toxicity of reactive oxygen intermediates [2]: protect
effect on lethal effects of sodium sulfide (sodium sulfide): protect
number of erosions, ulcers, and hemorrhages on the gastric mucosa (gastric mucosa [3]): reduce
onset and development of functional, morphological, and biochemical measures of acrylamide neuropathy [4]: retard
effect on cyanide intoxication (cyanide intoxication): antagonist
number of erosions, ulcers, and hemorrhages on the gastric mucosa (gastric mucosa [5]): reduce
abnormally deformed red blood cells (L1210 leukemia): restore abnormally deformed red blood cells to normal
urinary calculi (stones) (urinary calculi (stones)): fewer
